The results in this text go back to patent publication EP0435693B1, “Pharmaceutical compositions containing 3-oxygermylpropionic acid polymers for inhibiting the degeneration of cells” (SANWA KAGAKU KENKYUSHO CO., LTD., priority 1989, dated 1991).

The subject of one data set is mice. Kind of data set: Acute toxicity test, per os, mice. The class given is in vivo. An excerpt:
(§1) With (a) the 3-oxygermylpropionic acid according to this invention (hereinafter called SK-818) and (b) the composition of Preparation Ex. 1, SD rats and mice were subjected to acute and subacute (chronic) toxicity tests in conventional manner. (Groups of animals, 8-10 per group, were used for experimentation).

For the next data set, the system named is SD rats. As to the kind of experiment: Acute toxicity test, per os, rats. The class given is in vivo.
Source text: as §1

Another data set has as its system Wistar masculine rats. Kind of data set: Relief of nephrotoxicity of mercuric chloride. In kind it is in vivo. The protocol: The effect of SK-818 on the impairment of kidney-function by mercuric chloride was examined, using blood-urinary nitrogen levels as an index.
Mercuric chloride was subcutaneously administered to Wistar masculine rats (seven weeks of age) 6-10 per group, at a dose of 1.2 mg/kg. From 24 hours after the administration till the lapse of 96 hours, the animals were permitted to freely drink an aqueous solution containing 2,400 ppm of SK-818 (at an average dose of 231±14 mg/kg). […]

The next data set deals with SD masculine rats. Kind of data set: Subacute toxicity, oral, three months. The class given is in vivo. As to the method: as §1
(a) SK-818 and (b) the composition of Preparation Ex. 1 were administered orally to SD masculine rats at doses of 256, 380, 640, 1300, 1600 and 4000 mg/kg/day over three months to determine the doses at which there was no toxic influence on the animals and the animals were absolutely poisoned, respectively.

The next data set has as its system rat's hepatocytes. As to the kind of experiment: Inhibition of GPT elution from cultivated liver cells treated with hepatocyte-damaging substances. In kind it is cell-based. An excerpt: The effect on relieving the culture damage induced by adding hepatocyte-damaging substances and SK-818 to hepatocyte culture systems was examined by measuring the activity of glutamic-pyruvic transaminase (GPT) eluates obtained by cellular disorders. How much the elution of GPT was inhibited was used as an index to the hepatoxicity-relieving effect.
The following four substances were used as the hepatocyte-damaging (hepatoxic) substances. • (a) Galactosamine - "J. Natur. Prod.", 46, 841, 1983. • (b) Calcium ionophore - "Pharmacognosy", 39, 218, 1985. • (c) Cumene hydroperoxide - "Planta Med.", 51, 50, 1985. • (d) 1-Naphthylisothiocyanate.
The extraction and culture of a single layer of rat's hepatocytes were carried out by the procedures described by Nakamura et al in "Protein, Nucleic Acid and Oxygen", Extra Number No. 24, pp. 55-74, 1981.
Single layers of rats' hepatocytes were cultured for certain periods of time:- 0 hour for a galactosamine group, 20.5 hours for calcium ionophore and cumene hydroperoxide groups, and 14.5 hours for a 1-naph isocyanate group. Afterwards, the hepatocyte-damaging substances were added to the culture media at the respective desired concentrations:- 0.35 mM for (a); 10 »m for (b), 0.5 mM for (c) and 188 »m for (d)), which were then cultured for the respective given periods of time:- 38 hours for the group (a), 1 hour for (b), 1 hour for (c) and 12 hours for (d).
SK-818 was dissolved in bovine embryo serum, and the serum solution was then added to each medium at the respective stages of culture by the following three methods; • (a) it was added to the pre-culture medium prior to the addition of the hepatocyte-damaging substance (called the pre-addition); • (b) it was added to the culture medium simultaneously with the addition of the hepatocyte-damaging substance (called the simultaneous addition); and • (c) it was added to the pre-culture and culture media (called the total addition).
The activity of the GPT eluates produced by cytotoxicity in the media was measured by a GPT measuring kit. Then, GPT reductions in % were found by the following equation: [formula] wherein A is the activity in Karmen units of GPT in a culture medium to which no hepatocyte-damaging substance is added, B is the activity in Karmen units of GPT in a culture medium to which the hepatocyte-damaging substance is added; and C is the activity in Karmen units of GPT in a culture medium to which the hepatocyte-damaging substance is added together with 3-oxygermylpropionic acid.

Setting [1] is: orally, daily over three months.

Regarding 3-oxygermylpropionic acid [SK-818], the LD50 is 5,800 or more mg/kg in the data set on mice (female), 5,600 or more mg/kg in the data set on mice (male), 7,050 or more mg/kg in the data set on SD rats (female) and 7,700 or more mg/kg in the data set with SD rats (male). In addition, the Blood-urinary nitrogen worked out at 15.1 ± 0.4 mg/dL in the data set with Wistar masculine rats (0 hour, mercuric chloride 1.2 mg/kg s.c.); 31.9 ± 1.3 mg/dL in the data set on Wistar masculine rats (24 hours after mercuric chloride, drinking of 2400ppm aqueous solution starts at 24 hours); 50.6 ± 9.8 mg/dL in the data set with Wistar masculine rats (48 hours after mercuric chloride, 2400ppm aqueous solution); 45.9 ± 13.8 mg/dL in the data set on Wistar masculine rats (72 hours after mercuric chloride, 2400ppm aqueous solution); 30.9 ± 9.4 mg/dL in the data set with Wistar masculine rats (92 hours after mercuric chloride, 2400ppm aqueous solution). Also, in the data set on SD masculine rats (At 4000 mg/kg, orally over three months), the mortality entry is given as “some animals died”. In addition, in the data set on SD masculine rats (setting [1]), the “dose at which the animals were absolutely poisoned” value turned out to be 1600 mg/kg. Also, in the data set on SD masculine rats (setting [1]), the “dose which had no toxic influence on the animals” value is listed as 256 mg/kg. Besides, the GPT reductions with rat's hepatocytes (1-naphthylisothiocynate 188 »m, simultaneous addition) is 79%; in the data set on rat's hepatocytes (1-naphthylisothiocynate 188 »m, total addition), 67%; in the data set with rat's hepatocytes (calcium ionophore 10 »m, simultaneous addition), 27%; in the data set with rat's hepatocytes (calcium ionophore 10 »m, total addition), 36%; in the data set on rat's hepatocytes (cumene hydroperoxide 0.5 mM, simultaneous addition) it was 63%; in the data set with rat's hepatocytes (cumene hydroperoxide 0.5 mM, total addition) it was 42%. Also, the GPT reductions with rat's hepatocytes (galactosamine 0.35 mM, simultaneous addition) came out at 29%. The GPT reduction result in the data set with rat's hepatocytes (only pre-addition, before the hepatocyte-damaging substance) is listed as “No GPT reduction”.
